Measured values: the CheMixHub viscosity set
Values joined by “and” are separate entries in the source; they are usually repeats but may differ in a detail not shown here. Equal entries are not always repeated. ± gives the uncertainty stated by the source.

Key:
[1] = xn = mol fraction of the nth substance listed

Brc1ccc2[n-]cnc2c1.CCCCCCCCCCCCCC[P+](CCCCCC)(CCCCCC)CCCCCC
100 kPa
Conditions | viscosity [mPa·s]
293.15 K | 1910 ± 140
298.15 K | 1270 ± 86
303.15 K | 872 ± 52
308.15 K | 613 ± 32
313.15 K | 441 ± 20
318.15 K | 325 ± 13
323.15 K | 246 ± 9

CCCCn1cc[n+](C)c1.O=S(=O)([O-])C(F)(F)F
viscosity
Conditions | 293.15 K | 298.15 K | 303.15 K | 308.15 K | 313.15 K | 318.15 K | 323.15 K
100 kPa | 90.81 ± 2.5 mPa·s and 102 ± 4.6 mPa·s | 76.01 ± 1.8 mPa·s and 87.96 ± 11 mPa·s and 80.1 ± 3.6 mPa·s | 63.6 ± 1.4 mPa·s and 64.02 ± 2.8 mPa·s | 56.43 ± 1.5 mPa·s and 52.18 ± 2.3 mPa·s | 42.11 ± 0.92 mPa·s and 42.76 ± 1.9 mPa·s | 38.31 ± 2 mPa·s and 35.66 ± 1.6 mPa·s | 30.02 ± 0.65 mPa·s and 30.01 ± 1.3 mPa·s
101 kPa | – | 59.8 ± 1.4 mPa·s | – | – | – | – | 29.55 ± 2 mPa·s

CC(=O)C(=O)[O-].[Na+] + O
viscosity [mPa·s], [1], 101 kPa
Conditions | x1 = 0.00036 | x1 = 0.000648 | x1 = 0.000936 | x1 = 0.00137 | x1 = 0.00151 | x1 = 0.0018
298.15 K | 0.8972 ± 0.0089 | 0.9038 ± 0.009 | 0.9104 ± 0.009 | 0.9173 ± 0.0091 | 0.9206 ± 0.0091 | 0.9267 ± 0.0092
303.15 K | 0.8044 ± 0.008 | 0.811 ± 0.0081 | 0.8176 ± 0.0082 | 0.826 ± 0.0083 | 0.8308 ± 0.0083 | 0.8369 ± 0.0084
308.15 K | 0.7257 ± 0.0073 | 0.7308 ± 0.0073 | 0.7375 ± 0.0074 | 0.7474 ± 0.0076 | 0.7507 ± 0.0075 | 0.7569 ± 0.0083
313.15 K | 0.6602 ± 0.0049 | 0.6669 ± 0.005 | 0.6735 ± 0.005 | 0.682 ± 0.0051 | 0.6868 ± 0.0052 | 0.6931 ± 0.0052

CC1COC(=O)O1 (stereo not given) + O
[1], 298.15 K, 101 kPa
Conditions | viscosity [mPa·s]
x1 = 0.0025 | 0.9114 ± 0.024
x1 = 0.005 | 0.9267 ± 0.025
x1 = 0.01 | 0.959 ± 0.025
x1 = 0.02 | 1.028 ± 0.027
x1 = 0.025 | 1.064 ± 0.028
x1 = 0.0307 | 1.099 ± 0.029

CCC(N)(CO)CO + O
viscosity [mPa·s], [1], 101.33 kPa
Conditions | x1 = 0.0364 | x1 = 0.0916 | x1 = 0.185 | x1 = 0.261 | x1 = 0.377
303.15 K | 1.765 ± 0.021 | 4.993 ± 0.074 | 21.96 ± 0.33 | 56.54 ± 0.93 | 199.2 ± 5.3
313.15 K | 1.356 ± 0.016 | 3.435 ± 0.046 | 12.89 ± 0.19 | 30.13 ± 0.48 | 85.62 ± 1.6
323.15 K | 1.053 ± 0.013 | 2.504 ± 0.033 | 8.22 ± 0.12 | 17.36 ± 0.27 | 44.4 ± 0.73

CCCCn1cc[n+](C)c1.O=S(=O)([O-])C(F)(F)F + O
[1], 101 kPa
Conditions | viscosity [mPa·s]
308.15 K, x2 = 0.3999 | 19.95 ± 1.4
323.15 K, x2 = 0.901 | 3.005 ± 0.27

O=C([O-])[O-].[K+].[K+] + O
viscosity [mPa·s], [1], 101 kPa
Conditions | 303.15 K | 308.15 K | 313.15 K
x1 = 0.002 | 0.839 ± 0.007 | 0.769 ± 0.007 | 0.703 ± 0.006
x1 = 0.005 | 0.889 ± 0.008 | 0.814 ± 0.007 | 0.745 ± 0.007
x1 = 0.009 | 0.944 ± 0.008 | 0.864 ± 0.008 | 0.793 ± 0.007

O=S(=O)([O-])[O-].[Ca+2] + O
[1], 100 kPa
Conditions | viscosity [mPa·s]
303.15 K, x1 = 0.000281 | 0.7976 ± 0.16
323.15 K, x1 = 0.000279 | 0.557 ± 0.11

C1CCOC1 + O=C1CCCO1
viscosity [mPa·s], [1]
Conditions | 293.15 K | 298.15 K | 303.15 K | 308.15 K | 313.15 K | 318.15 K | 323.15 K
101 kPa, x1 = 0.1009 | 1.614 ± 0.026 | 1.496 ± 0.025 | 1.39 ± 0.023 | 1.297 ± 0.022 | 1.212 ± 0.021 | 1.136 ± 0.02 | 1.068 ± 0.019
101 kPa, x1 = 0.2003 | 1.388 ± 0.023 | 1.292 ± 0.022 | 1.206 ± 0.021 | 1.128 ± 0.02 | 1.058 ± 0.019 | 0.995 ± 0.018 | 0.938 ± 0.017
101 kPa, x1 = 0.3008 | 1.203 ± 0.02 | 1.123 ± 0.019 | 1.052 ± 0.018 | 0.987 ± 0.018 | 0.93 ± 0.017 | 0.877 ± 0.016 | 0.83 ± 0.016
101 kPa, x1 = 0.4004 | 1.046 ± 0.018 | 0.98 ± 0.018 | 0.92 ± 0.017 | 0.866 ± 0.016 | 0.818 ± 0.016 | 0.773 ± 0.015 | 0.733 ± 0.015
101 kPa, x1 = 0.4916 | 0.936 ± 0.017 | 0.878 ± 0.016 | 0.825 ± 0.016 | 0.778 ± 0.015 | 0.735 ± 0.015 | 0.696 ± 0.014 | 0.66 ± 0.014
101 kPa, x1 = 0.5991 | 0.809 ± 0.015 | 0.761 ± 0.015 | 0.717 ± 0.014 | 0.677 ± 0.014 | 0.641 ± 0.014 | 0.608 ± 0.013 | 0.578 ± 0.013
101 kPa, x1 = 0.6997 | 0.706 ± 0.014 | 0.667 ± 0.014 | 0.631 ± 0.014 | 0.598 ± 0.013 | 0.567 ± 0.013 | 0.537 ± 0.013 | 0.511 ± 0.012
101 kPa, x1 = 0.8 | 0.62 ± 0.013 | 0.589 ± 0.013 | 0.56 ± 0.013 | 0.531 ± 0.013 | 0.506 ± 0.012 | 0.482 ± 0.012 | 0.461 ± 0.012
101 kPa, x1 = 0.8997 | 0.567 ± 0.013 | 0.538 ± 0.013 | 0.511 ± 0.012 | 0.485 ± 0.012 | 0.463 ± 0.012 | 0.441 ± 0.012 | 0.415 ± 0.012
101.33 kPa, x1 = 0.1077 | 1.583 ± 0.013 | 1.462 ± 0.012 | – | – | – | – | –
101.33 kPa, x1 = 0.3124 | 1.172 ± 0.009 | 1.089 ± 0.008 | – | – | – | – | –
101.33 kPa, x1 = 0.701 | 0.682 ± 0.005 | 0.641 ± 0.005 | – | – | – | – | –
101.33 kPa, x1 = 0.8954 | 0.539 ± 0.004 | 0.51 ± 0.004 | – | – | – | – | –

CC(C)C[P+](C)(CC(C)C)CC(C)C.Cc1ccc(S(=O)(=O)[O-])cc1 + O=S1(=O)CCCC1
Conditions | viscosity [mPa·s]
[1], 323.15 K, 101.33 kPa, x1 = 0.5 | 68.5 ± 14

CCCC[P+](CCCC)(CCCC)CCCC.CS(=O)(=O)[O-] + O=S1(=O)CCCC1
Conditions | viscosity [mPa·s]
[1], 313.15 K, 101.33 kPa, x1 = 0.5 | 84.22 ± 17

c1ccc2ccccc2c1 + O=[N+]([O-])c1ccccc1
viscosity [mPa·s], [1], 101 kPa
Conditions | 303.15 K | 308.15 K | 313.15 K | 318.15 K | 323.15 K
x1 = 0.2952 | 1.646 ± 0.041 | 1.544 ± 0.039 | 1.44 ± 0.036 | 1.329 ± 0.034 | 1.231 ± 0.031
x1 = 0.4191 | – | 1.578 ± 0.04 | 1.45 ± 0.036 | 1.346 ± 0.034 | 1.252 ± 0.032

CC(C)=O + OCCO
[1], 293.15 K, 101.33 kPa
Conditions | viscosity [mPa·s]
x2 = 0.1258 | 0.439 ± 0.004
x2 = 0.2405 | 0.625 ± 0.006
x2 = 0.2517 | 0.651 ± 0.006
x2 = 0.3451 | 0.912 ± 0.008
x2 = 0.3891 | 1.086 ± 0.009
x2 = 0.5257 | 1.91 ± 0.015
x2 = 0.6291 | 3.034 ± 0.024
x2 = 0.6515 | 3.393 ± 0.026
x2 = 0.7734 | 6.123 ± 0.044
x2 = 0.8254 | 7.897 ± 0.054
x2 = 0.8715 | 9.97 ± 0.065
x2 = 0.921 | 13.18 ± 0.084

CC[N+](CC)(CC)CC.Cc1ccc(S(=O)(=O)[O-])cc1 + OCCO
[1], 101 kPa, x1 = 0.2
Conditions | viscosity [mPa·s]
298.15 K | 51.2 ± 0.5
303.15 K | 40.8 ± 0.5
308.15 K | 32.8 ± 0.4
313.15 K | 24.4 ± 0.3
318.15 K | 22.2 ± 0.3
323.15 K | 17.4 ± 0.2

CC[N+](CC)(CC)CC.Cc1ccc(S(=O)(=O)[O-])cc1 + OCCOCCOCCOCCO
[1], 101 kPa, x1 = 0.2
Conditions | viscosity [mPa·s]
298.15 K | 74.7 ± 1.2
303.15 K | 57.8 ± 0.6
308.15 K | 45.9 ± 0.6
313.15 K | 36.9 ± 0.5
318.15 K | 30.2 ± 0.4
323.15 K | 25 ± 0.3

O=S(=O)([O-])[O-].[Mn+2] + [2H]O[2H]
viscosity [mPa·s], [1], 101 kPa
Conditions | x1 = 0.005 | x1 = 0.012 | x1 = 0.02 | x1 = 0.029 | x1 = 0.037
298.15 K | 1.297 ± 0.014 | 1.59 ± 0.018 | 2.183 ± 0.024 | 3.14 ± 0.034 | 4.452 ± 0.048
308.15 K | 1 ± 0.01 | 1.247 ± 0.014 | 1.696 ± 0.019 | 2.404 ± 0.026 | 3.327 ± 0.036
318.15 K | 0.827 ± 0.009 | 1.008 ± 0.011 | 1.371 ± 0.015 | 1.912 ± 0.021 | 2.575 ± 0.028

O=C(O)CBr + [Br-].[Br-].[Br-].[Br-].[Sn+4]
viscosity [mPa·s], [1], 101 kPa
Conditions | x2 = 0.0895 | x2 = 0.2636 | x2 = 0.4794 | x2 = 0.7268 | x2 = 0.9042
313.15 K | 3.74 ± 0.13 | 3.07 ± 0.11 | 2.48 ± 0.09 | 2.04 ± 0.07 | 1.88 ± 0.07
323.15 K | 3.12 ± 0.11 | 2.58 ± 0.09 | 2.15 ± 0.08 | 1.78 ± 0.07 | 1.65 ± 0.06
